Data: patent US7744867B2, “PTPase inhibitors and method of using same” (The Cleveland Clinic Foundation, priority 2001, dated 2010)

Columns and labels:
Type in all cases: biochemical
PTPases = experiment: PTPase inhibition in vitro by ketoconazole
recombinant PRL-3 = target: T1, recombinant PRL-3 (Homo sapiens, UniProt O75365); experiment: In vitro PTPase assay with recombinant PRL (peptide or DiFMUP substrate); conditions: DiFMUP substrate; comparable conditions
T1 construct: made in house; host or cells: E. coli DH5α
T1 sequence (O75365 whole entry): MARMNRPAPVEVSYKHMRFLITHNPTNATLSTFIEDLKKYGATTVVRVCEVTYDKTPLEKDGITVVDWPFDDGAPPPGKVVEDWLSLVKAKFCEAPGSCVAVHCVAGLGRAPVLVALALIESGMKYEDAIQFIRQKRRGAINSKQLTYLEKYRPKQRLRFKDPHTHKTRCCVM
Experimental: In vitro PTPase activities were measured using the commercial protein tyrosine phosphatase assay kit (UBI) following established procedure. […] 100 μl of Malachite Green solution was added and incubated for 5 minutes, and the absorbance at 660 nm was measured after 5 minutes.
Recombinant GST fusion proteins of human PRL-1, 2 and 3 phosphatases were purified with glutathione beads from DH5α bacteria transformed by pGEX vectors containing cDNA fragments encoding the human PRLs which were generated by RT-PCR from H9 cells and confirmed by sequence analysis. Activities of the purified recombinant PRL proteins in dephosphorylating DiFMUP in the absence or presence of various inhibitors were measured following established procedure.
To assess whether sodium stibogluconate is an inhibitor of oncogenic PRL phosphatases, its effects on the PTPase activity of recombinant PRLs were evaluated by in vitro PTPase assays.

GST/SHP-1 fusion protein [1] = target: T2, GST/SHP-1 fusion protein (Mus musculus, UniProt P29351); experiment: In vitro PTPase assay, dephosphorylation of a synthetic phosphotyrosine peptide; conditions: under comparable conditions
T2 construct: made in house
T2 sequence (P29351 whole entry, the tested form may be a part): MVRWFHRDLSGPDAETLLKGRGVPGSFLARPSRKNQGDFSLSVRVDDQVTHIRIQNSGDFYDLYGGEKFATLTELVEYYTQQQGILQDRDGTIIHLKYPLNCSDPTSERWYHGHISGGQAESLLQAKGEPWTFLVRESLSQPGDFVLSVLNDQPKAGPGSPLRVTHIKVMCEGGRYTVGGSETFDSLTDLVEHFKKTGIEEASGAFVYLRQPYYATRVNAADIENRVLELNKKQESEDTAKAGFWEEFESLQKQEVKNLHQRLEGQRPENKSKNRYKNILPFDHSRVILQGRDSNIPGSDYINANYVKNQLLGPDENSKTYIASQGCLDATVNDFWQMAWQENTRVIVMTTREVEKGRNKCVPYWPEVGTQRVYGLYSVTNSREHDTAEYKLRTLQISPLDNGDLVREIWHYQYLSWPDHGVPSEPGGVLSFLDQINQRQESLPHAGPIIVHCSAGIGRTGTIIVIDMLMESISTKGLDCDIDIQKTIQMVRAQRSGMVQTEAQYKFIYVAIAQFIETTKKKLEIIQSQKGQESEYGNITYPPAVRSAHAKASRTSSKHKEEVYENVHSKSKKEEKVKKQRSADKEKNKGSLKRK
Experimental: In vitro PTPase activities were measured using the commercial protein tyrosine phosphatase assay kit (UBI) following established procedure. This assay measures the in vitro dephosphorylation of a synthetic phosphotyrosine peptide (R-R-L-I-E-D-A-E-pY-A-A-R-G). Briefly, 0.01 μg of GST/PTPase fusion protein was incubated in 50 μl of Tris buffer (10 mM Tris, […]) at 22° C. for 10 minutes, followed by addition of 0.2 mM of the phosphotyrosine peptide and incubation at 22° C. for 18 hours. 100 μl of Malachite Green solution was added and incubated for 5 minutes, and the absorbance at 660 nm was measured after 5 minutes.

GST/SHP-1 fusion protein [2] = target: T2, GST/SHP-1 fusion protein; experiment: Reversibility of SHP-1 inhibition (washing of bead-bound GST/SHP-1); conditions: preincubated with inhibitor, then washed
Text: The beads were then washed 3 times in Tris buffer or without washing prior to in vitro PTPase assays.

CC(=O)N1CCN(c2ccc(OCC3COC(Cn4ccnc4)(c4ccc(Cl)cc4Cl)O3)cc2)CC1 (centres unmarked) [ketoconazole]
PTPase inhibition in vitro (PTPases): inhibits different PTPases

[Na+].[Na+].[Na+].[O]=[V]([O-])([O-])[O-] [sodium orthovanadate]
inhibition of PRL-3 compared with sodium stibogluconate (recombinant PRL-3): less effective

Cc1ccc(C(=O)Nc2ccc(S(=O)(=O)O)c3cc(S(=O)(=O)O)cc(S(=O)(=O)O)c23)cc1NC(=O)c1cccc(NC(=O)Nc2cccc(C(=O)Nc3cc(C(=O)Nc4ccc(S(=O)(=O)O)c5cc(S(=O)(=O)O)cc(S(=O)(=O)O)c45)ccc3C)c2)c1 [suramin]
inhibition of SHP-1 compared with sodium stibogluconate (GST/SHP-1 fusion protein [1]): less effective | reversibility of SHP-1 inhibition (GST/SHP-1 fusion protein [2]): reversible | inhibition of PRL-3 compared with sodium stibogluconate (recombinant PRL-3): less effective
